1 compound from patent US9586896B2, “Nitroxyl donors with improved therapeutic index” (Cardioxyl Pharmaceuticals, Inc., priority 2013, dated 2017) can be followed below.

The nature of the data set: Exploratory studies on the cause of the side effects of CXL-1020. To be noted: in vivo. As for the experimental part: Exploratory studies were continued to determine the cause of the undesirable side effects of CXL-1020 at the higher, but still clinically desirable, doses. […] Studies were conducted with alternative nitroxyl donors that were structurally unrelated to CXL-1020 but had similar half-lives for nitroxyl donation (half-lives of about 2 minutes). For these donors, nitroxyl was at its highest intravascular concentration at the catheter tip and immediately downstream in the vein into which the catheter had been inserted. In all instances, local vascular side effects at the catheter tip were observed.

For the compound `CS(=O)(=O)c1ccccc1S(=O)O` [byproduct of CXL-1020], the “side effect studies with the byproduct” value is reported as “negative”.
